Calls of active or inactive are those of the source. The rule behind the calls is not given here.
Biological target: Histone-lysine N-methyltransferase EZH2 (Homo sapiens) (UniProt Q15910)
Assay: Inhibition of N-terminal His-tagged human full-length recombinant EZH2 (2 to 746 residues) in PRC2 complex at higher concentration using core histone as substrate and 3H-SAM as cosubstrate incubated for 60 mins by scintillation counter analysis

Sequence of Histone-lysine N-methyltransferase EZH2 (Homo sapiens) (Q15910 whole entry, looked up, the tested form may be a part): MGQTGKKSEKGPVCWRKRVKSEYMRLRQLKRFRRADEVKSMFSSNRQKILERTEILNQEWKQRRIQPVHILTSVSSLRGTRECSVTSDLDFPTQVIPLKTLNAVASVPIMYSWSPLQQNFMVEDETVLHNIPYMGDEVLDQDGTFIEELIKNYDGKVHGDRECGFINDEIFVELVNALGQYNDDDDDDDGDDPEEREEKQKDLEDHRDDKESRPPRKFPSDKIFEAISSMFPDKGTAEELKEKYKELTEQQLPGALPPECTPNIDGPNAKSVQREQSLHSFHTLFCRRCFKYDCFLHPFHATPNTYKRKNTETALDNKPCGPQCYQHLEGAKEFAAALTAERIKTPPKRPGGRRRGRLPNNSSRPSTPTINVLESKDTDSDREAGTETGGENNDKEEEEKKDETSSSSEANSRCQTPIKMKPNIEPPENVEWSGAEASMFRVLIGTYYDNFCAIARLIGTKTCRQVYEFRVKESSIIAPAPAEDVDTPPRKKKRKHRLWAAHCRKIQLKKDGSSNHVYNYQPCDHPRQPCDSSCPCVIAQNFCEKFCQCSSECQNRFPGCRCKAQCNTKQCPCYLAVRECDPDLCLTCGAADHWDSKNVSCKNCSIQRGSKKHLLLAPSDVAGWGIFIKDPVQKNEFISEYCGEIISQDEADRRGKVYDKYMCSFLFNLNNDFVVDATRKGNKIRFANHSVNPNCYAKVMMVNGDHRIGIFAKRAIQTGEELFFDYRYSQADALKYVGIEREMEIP

COC(=O)c1cc(O)c2cc(NC(=O)NCCCNC(=N)NC[C@H]3O[C@@H](n4cnc5c(N)ncnc54)[C@H](O)[C@@H]3O)cc(C(F)(F)F)c2c1
inhibition: inactive

From ChEMBL document CHEMBL5365419, “Identification of a Protein Arginine Methyltransferase 7 (PRMT7)/Protein Arginine Methyltransferase 9 (PRMT9) Inhibitor” (J Med Chem, 2023)
